# Source: patent publication US20250230244A1, “METHODS AND COMPOSITIONS COMPRISING B7-H3 BINDING POLYPETIDES” (BOARD OF REGENTS, THE UNIVERSITY OF TEXAS SYSTEM, priority 2021, published 2025)
# Legend:
# [1] = system: BC cell lines (MCF7 and HCC38); assay: NK cell-mediated ADCC in breast cancer cell lines; format: cell-based, human; conditions: 10 μg/mL
# From the text: Rituximab is a chimeric anti-CD20 antibody that was used as a nonspecific control antibody.
# [2] = system: AML cell lines (OCI-AML3, MV4-11, and U937); assay: NK cell ADCC, annexin V binding, Incucyte, AML cell lines; format: cell-based, human
# Method: For live-cell apoptosis analysis, the inventors stained OCI-AML3, MV4-11, U937, and primary cells with CytoLight Red (#4482; Essen BioScience). […] Time-lapse fluorescence imaging was performed using an Incucyte live-cell imaging system (Essen BioScience) to assess apoptosis induction every 1 hour for 20-48 hours. The apoptosis in leukemic cells was measured by green and red overlap counts.
# Rituximab is a chimeric anti-CD20 antibody that was used as a non-specific control antibody. NK cell-induced apoptosis was measured by annexin V binding assay using the Incucyte live-cell imaging system. […] Representative images of OCI-AML3 cells undergoing apoptosis at different time points in different treatment conditions are shown in FIG. 12A.
substance,measurement,setting,value
rituximab [reference compound],apoptosis in BC cells (ADCC),"[1]; with NK cells, 15:1 NK-to-target cell ratio",did not show significant outcomes
same,"killing of BC cells, antibody alone, after 10 hours",[1]; without NK cells,did not affect the killing of BC cells
same,apoptosis of leukemic cells (NK cell ADCC),"[2]; 1, 5, and 10 μg/mL, with NK cells, 8:1 ratio",did not show significant outcomes
same,"killing of leukemic cells, antibody alone, at 28 and 22 hours",[2]; antibody alone,no effect on killing leukemic cells
